Results from PubChem BioAssay AID2060491 (Molecular Pharmacology Branch, DTP, NCI, 2025).

Tested on: 857933-349-R-J2-PDC complex spheroids, viability
Experiment: Anticancer human tumor 857933-349-R-J2-PDC patient-derived colon adenocarcinoma cell line growth inhibition [GQUAD]
Settings: for IC50: curve of first compound; for viability, T/C: stronger effect = lower value
Outline: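 Viability of tumor cells grown as complex spheroids with endothelial and stromal cells, exposed to drug combinations. Top concentration at or near clinical Cmax (else 10 microM), diluted in half-log increments.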

[1] = second compound 0.0316 µM, first compound 0.0316 µM
[2] = second compound 0.0316 µM, first compound 0.1 µM
[3] = second compound 0.0316 µM, first compound 0.316 µM
[4] = second compound 0.0316 µM, first compound 1 µM
[5] = second compound 0.0316 µM, first compound 3.16 µM
[6] = second compound 0.0316 µM, first compound 10 µM
[7] = second compound 0.1 µM, first compound 0.0316 µM
[8] = second compound 0.1 µM, first compound 0.1 µM
[9] = second compound 0.1 µM, first compound 0.316 µM
[10] = second compound 0.1 µM, first compound 1 µM
[11] = second compound 0.1 µM, first compound 3.16 µM
[12] = second compound 0.1 µM, first compound 10 µM
[13] = second compound 0.316 µM, first compound 0.0316 µM
[14] = second compound 0.316 µM, first compound 0.1 µM
[15] = second compound 0.316 µM, first compound 0.316 µM
[16] = second compound 0.316 µM, first compound 1 µM
[17] = second compound 0.316 µM, first compound 3.16 µM
[18] = second compound 0.316 µM, first compound 10 µM
[19] = second compound 1 µM, first compound 0.0316 µM
[20] = second compound 1 µM, first compound 0.1 µM
[21] = second compound 1 µM, first compound 0.316 µM
[22] = second compound 1 µM, first compound 1 µM
[23] = second compound 1 µM, first compound 3.16 µM
[24] = second compound 1 µM, first compound 10 µM
[25] = second compound 3.16 µM, first compound 0.0316 µM
[26] = second compound 3.16 µM, first compound 0.1 µM
[27] = second compound 3.16 µM, first compound 0.316 µM
[28] = second compound 3.16 µM, first compound 1 µM
[29] = second compound 3.16 µM, first compound 3.16 µM
[30] = second compound 3.16 µM, first compound 10 µM
[31] = second compound 10 µM, first compound 0.0316 µM
[32] = second compound 10 µM, first compound 0.1 µM
[33] = second compound 10 µM, first compound 0.316 µM
[34] = second compound 10 µM, first compound 1 µM
[35] = second compound 10 µM, first compound 3.16 µM
[36] = second compound 10 µM, first compound 10 µM
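Further: spheroids exposed to compounds for one week before readout.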
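Wherever viability, T/C is given: percent viability relative to vehicle DMSO wells taken as 100%.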

`COc1ccc([C@@H](O)c2cc(-c3ncnc4cc(N5CCOCC5)ccc34)c(F)cc2Cl)nn1` + Cc1[nH]c2ccc(F)cc2c1-c1nc2c3cccnc3c3ncccc3c2[nH]1 gave an IC50 (second compound 0.0316 µM) greater than 10 µM, an IC50 (second compound 0.1 µM) of 8.66 µM and an IC50 (second compound 0.316 µM) greater than 10 µM. The IC50 (second compound 1 µM) was greater than 10 µM, the IC50 (second compound 3.16 µM) was greater than 10 µM and the IC50 (second compound 10 µM) was greater than 10 µM. For the same compound, the viability, T/C [1] was 124%, the viability, T/C [2] was 98.5% and the viability, T/C [3] was 99.8%. For the same compound, the viability, T/C [4] was 82.2%, the viability, T/C [5] was 69.9% and the viability, T/C [6] was 51.6%. For the same compound, the viability, T/C [7] was 107%, the viability, T/C [8] was 108% and the viability, T/C [9] was 93.5%. It also gave a viability, T/C [10] of 87.8%, a viability, T/C [11] of 64.2% and a viability, T/C [12] of 48.1%. The viability, T/C [13] was 108%, the viability, T/C [14] was 91.1% and the viability, T/C [15] was 99.1%. It also gave a viability, T/C [16] of 90.8%, a viability, T/C [17] of 71.6% and a viability, T/C [18] of 58.1%. For the same compound, the viability, T/C [19] was 102%, the viability, T/C [20] was 98.8% and the viability, T/C [21] was 96.3%. It also gave a viability, T/C [22] of 99.4%, a viability, T/C [23] of 71.8% and a viability, T/C [24] of 52.7%. For the same compound, the viability, T/C [25] was 113%, the viability, T/C [26] was 96.5% and the viability, T/C [27] was 95.1%. For the same compound, the viability, T/C [28] was 94%, the viability, T/C [29] was 66.1% and the viability, T/C [30] was 52.2%. It also gave a viability, T/C [31] of 105%, a viability, T/C [32] of 94.1% and a viability, T/C [33] of 91.6%. It also gave a viability, T/C [34] of 79.9%, a viability, T/C [35] of 68.6% and a viability, T/C [36] of 51.9%.

`O=c1[nH]cc(F)c(=O)[nH]1` + Cc1[nH]c2ccc(F)cc2c1-c1nc2c3cccnc3c3ncccc3c2[nH]1 was tested, and the IC50 (second compound 0.0316 µM) was 1.72 µM, the IC50 (second compound 0.1 µM) was 1.8 µM and the IC50 (second compound 0.316 µM) was 2.1 µM. The IC50 (second compound 1 µM) was 2.15 µM, the IC50 (second compound 3.16 µM) was 2.06 µM and the IC50 (second compound 10 µM) was 2.2 µM. The viability, T/C [1] was 97.1%, the viability, T/C [2] was 111% and the viability, T/C [3] was 99%. For the same compound, the viability, T/C [4] was 65.7%, the viability, T/C [5] was 33.3% and the viability, T/C [6] was 22.6%. For the same compound, the viability, T/C [7] was 104%, the viability, T/C [8] was 103% and the viability, T/C [9] was 96.8%. The viability, T/C [10] was 64.8%, the viability, T/C [11] was 36% and the viability, T/C [12] was 22.5%. For the same compound, the viability, T/C [13] was 100%, the viability, T/C [14] was 99.3% and the viability, T/C [15] was 94%. The viability, T/C [16] was 74.9%, the viability, T/C [17] was 36.1% and the viability, T/C [18] was 22.6%. The viability, T/C [19] was 101%, the viability, T/C [20] was 98.2% and the viability, T/C [21] was 96.7%. For the same compound, the viability, T/C [22] was 75.7%, the viability, T/C [23] was 37% and the viability, T/C [24] was 23%. The viability, T/C [25] was 96.3%, the viability, T/C [26] was 94.7% and the viability, T/C [27] was 96.7%. The viability, T/C [28] was 73.8%, the viability, T/C [29] was 36.1% and the viability, T/C [30] was 22.6%. The viability, T/C [31] was 93.2%, the viability, T/C [32] was 96.8% and the viability, T/C [33] was 95.2%. For the same compound, the viability, T/C [34] was 82%, the viability, T/C [35] was 35.3% and the viability, T/C [36] was 24.8%.
